Measurements from article PMC3590142 (PLoS ONE, 2013).

B1: RFT-1 (rft-1, Y47D7A.16) (Caenorhabditis elegans) (protein)
chain: MKTFLFTFCLVAIFGSSSWIGTNSVWMELSLLTAKLPEGWNLPSYLSAIVQIACLGPLIYSIIHKGIKMTIPTVPLIFIFMVLACICQLGLCFFWDDTGYIFGAIRSWPLYLLLFGLAIVDAISSVLFLPFMAQFHPSFLNAYFVGMGLSALIPSLLSLIQGTSNYWCDDNKTPHYYPPRFSVSMFFLINFFFTCAAVAAFLVLYKIGAHKNSSQVEPEPKHSIQIIQGDSTTDVNEVNTESSFQETSSIPDSSSATGARLAFLLLTTALVNAQMNGIVTSVQSYATLVYSQNTYHYAVTLSNVISPLASYLQFFVKIRSLPILAFLTLCSSLTTAVIIYLAALSPNWIFNSETAGTIISIASSLIAAGLHSYLRVMFAALLREGNQKESRLFWCGAFIQIGSFTGSAIMFPLVNVWKLFHSAPSCR

Legend:
RFT-1 (rft-1, Y47D7A.16) = biological target: T1, RFT-1 (rft-1, Y47D7A.16) (Caenorhabditis elegans, UniProt Q3LFN0); test: inhibition of [3H]riboflavin uptake, transfected ARPE-19 cells, empty-vector uptake subtracted; type: cell-based; settings: competition with [3H]riboflavin; 37°C, 5 min, Krebs-Ringer buffer
T1 construct: full-length 1,284 nt cDNA with corrected 3' end (differs from the older gene model) in pCI-neo; untagged; transient expression in human ARPE-19 cells; 11 predicted TM domains
T1 sequence (Q3LFN0 1-427): B1 chain

RFT-2 (rft-2, Y47D7A.14) = biological target: T2, RFT-2 (rft-2, Y47D7A.14) (Caenorhabditis elegans, UniProt G4SDH4); test: [3H]riboflavin uptake, transfected ARPE-19 cells, empty-vector uptake subtracted; settings: 14 nM [3H]riboflavin, pH 5.5, 37°C, 5 min, Krebs-Ringer buffer; labelled compound
T2 construct: full-length cDNA in pCI-neo; untagged; transient expression in human ARPE-19 cells
T2 sequence (G4SDH4 1-476): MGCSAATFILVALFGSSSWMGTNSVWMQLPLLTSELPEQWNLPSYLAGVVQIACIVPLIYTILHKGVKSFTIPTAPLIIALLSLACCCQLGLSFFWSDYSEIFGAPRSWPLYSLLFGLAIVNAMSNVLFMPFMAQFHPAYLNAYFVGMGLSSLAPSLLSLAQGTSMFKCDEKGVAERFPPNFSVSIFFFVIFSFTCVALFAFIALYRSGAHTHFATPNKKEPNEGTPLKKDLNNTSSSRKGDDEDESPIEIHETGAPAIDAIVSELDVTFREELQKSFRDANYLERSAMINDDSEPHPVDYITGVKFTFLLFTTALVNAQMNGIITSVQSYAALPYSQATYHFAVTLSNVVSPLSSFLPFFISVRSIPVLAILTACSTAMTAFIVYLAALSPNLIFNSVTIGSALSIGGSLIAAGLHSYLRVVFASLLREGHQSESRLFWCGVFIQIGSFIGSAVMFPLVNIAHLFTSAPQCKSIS

[1] = substrate: Cc1cc2nc3c(=O)[nH]c(=O)nc-3n(C[C@H](O)[C@H](O)[C@H](O)CO)c2cc1C; test: cells, lysate or membranes; settings: 0.01–10 µM riboflavin, 37°C, 5 min, Krebs-Ringer buffer, labelled compound

Molecule	inhibition of [3H]riboflavin uptake, transfected ARPE-19 cells, empty-vector upt (RFT-1 (rft-1, Y47D7A.16))	further results
Cc1cc2nc3[nH]c(=O)[nH]c(=O)c3nc2cc1C [lumichrome]	structural analogues lumichrome and lumiflavin significantly inhibited [^3H] riboflavin uptake	–
Cc1cc2nc3c(=O)[nH]c(=O)nc-3n(C)c2cc1C [lumiflavin]	structural analogues lumichrome and lumiflavin significantly inhibited [^3H] riboflavin uptake	–
Cc1cc2nc3c(=O)[nH]c(=O)nc-3n(C[C@H](O)[C@H](O)[C@H](O)CO)c2cc1C [riboflavin]	–	[3H]riboflavin uptake, transfected ARPE-19 cells, empty-vector uptake subtracted (RFT-2 (rft-2, Y47D7A.14)): rft-2 transfected cells also had significantly higher riboflavin uptake compared to controls
B1	–	Km [1]: 1.4 ± 0.5 µM
